Data taken from US9259452B2, “Deacetylase inhibitor therapy” (Celgene Corporation, priority 2006, dated 2016).
Where “and” joins values, the source holds several entries; their conditions need not be identical. Equal entries are not always repeated.

Columns and labels:
Assay type in all cases: in vivo, human
[1] = Rhythm evaluation by Holter and telemetry monitoring
Source text: Rhythm: A 24-hour Holter monitor was obtained prior to initiating therapy to establish a baseline rhythm. Patients were monitored by telemetry following administration of the first dose until discharge on day 3.

[2] = ECG evaluation of T-wave (grade 1) and ST segment (grade 2) abnormalities, phase II trial of romidepsin in T-cell lymphoma patients; settings: for ECGs Grade 0 (no T-wave/ST segment abnormality) / ECGs Grade 1 (T-wave abnormality) / ECGs Grade 2 (ST segment depression): all doses, n = 42 patients
Source text: The protocol (NCI 01-C-0049 or 1312) and informed consent were approved by the Institutional Review Board of the National Cancer Institute. All data used in this analysis were obtained from patients who signed an informed consent and were enrolled and treated at the NIH Warren Grant Magnuson Clinical Center. Toxicities were reported using the National Cancer Institute Common Toxicity Criteria, CTC version 2.0. The Inclusion Criteria required measurable disease, an age of 18 years or older, an ECOG performance status of 0, 1 or 2, and a life expectancy of >12 wk. Required laboratory values included AGC≧1000/μL, platelets≧100,000/μL, bilirubin <1.5× the institutional upper limit of normal (ULN), AST <3×ULN, and creatinine <1.5×ULN. Patients with a myocardial infarction within the previous 6 months, a left ventricular ejection fraction (LVEF) below normal (<45% if performed by MUGA, or <50% if performed by echocardiogram or cardiac MRI), a corrected QT interval of >500 ms, unstable angina, or third degree heart block (unless with pacemaker) were not eligible to enroll.
Subsequently, the protocol was amended and all patients were treated on days 1, 8 and 15 of a 28 day cycle, with a starting dose of 14 mg/m^2. This change was made for improved patient tolerability. […] Provisions for dose reduction were made in the case of grade 3 or 4 toxicity. Alternatively, a dose increase was allowed for patients who had no serious toxicities.

[3] = Left ventricular ejection fraction (LVEF) evaluation by MUGA, echocardiogram or cardiac MRI
Protocol: Evaluation of left ventricular ejection fraction: LVEF evaluations were performed at baseline, after the second cycle and every 3 cycles thereafter using MUGA, echocardiogram or cardiac MRI (23, 24). A patient's on-study and last available LVEF are included in this analysis. Cardiac measurements were performed according to the American Society of Echocardiography guidelines (25). LVEFs from echocardiograms were evaluated by an independent reviewer in a blinded manner and were assessed using the biplane Simpson's method.

[4] = Pre-treatment cycle 2 day 1 (n = 34), worst grade cycle 1: 1
[5] = Pre-treatment cycle 2 day 1 (n = 34), worst grade cycle 1: 2
[6] = Pre-treatment cycle 3 day 1 (n = 28), worst grade cycle 2: 1
[7] = Pre-treatment cycle 3 day 1 (n = 28), worst grade cycle 2: 2
[8] = Pre-treatment day 8 (n = 37), worst grade post-day 1 treatment 0
[9] = Pre-treatment day 8 (n = 37), worst grade post-day 1 treatment 1
[10] = Pre-treatment day 8 (n = 37), worst grade post-day 1 treatment 2
[11] = Pre-treatment day 15 (n = 36), worst grade post-day 8 treatment 0
[12] = Pre-treatment day 15 (n = 36), worst grade post-day 8 treatment 1
[13] = Pre-treatment day 15 (n = 36), worst grade post-day 8 treatment 2
[14] = Day after treatment, listed as depsipeptide
[15] = Immediate post infusion, listed as depsipeptide
[16] = Pre-treatment ECGs, listed as depsipeptide
[17] = any time during treatment, 37 patients on day 1, 8, 15 schedule
[18] = first dose of the first cycle (n = 42), Day 2
[19] = first dose of the first cycle (n = 42), Day 3
[20] = first dose of the first cycle (n = 42), Post infusion
[21] = first dose of the first cycle (n = 42), Pre (baseline)
[22] = 16 patients receiving at least 6 cycles
[23] = 16 patients receiving at least 6 cycles, baseline

C/C=C1\NC(=O)[C@H]2CSSCC/C=C/[C@H](CC(=O)N[C@H](C(C)C)C(=O)N2)OC(=O)[C@H](C(C)C)NC1=O [romidepsin, (1S,4S,10S,16E,21R)-7-[(2Z)-ethylidene]-4,21-diisopropyl-2-oxa-12,13-dithia-5,8,20,23-tetraazabicyclo[8.7.6]tricos-16-ene-3,6,9,19,22-pentanone]
VT on 24-hour Holter during administration ([1]; 20 administrations to 9 patients, including 2 with VT pre-treatment): No patient had VT | Patients noted to have SVT on 24-hour Holter during administration ([1]; 20 administrations to 9 patients, episodes similar to pretreatment Holter): Two | Additional patients observed to have wide complex tachycardia on telemetry ([1]; telemetry 24-36 hours, 36 patients, max one event per 24 hr, 4 to 12 beats): Four | Additional patients observed to have rare SVT on telemetry ([1]; telemetry 24-36 hours, 36 patients, similar frequency on pre-treatment Holter): Three | Patients with worst ECG Grade 0 ([2]; All cycles, 42 patients): 2% | Patients with worst ECG Grade 1 ([2]; All cycles, 42 patients): 45% | Patients with worst ECG Grade 2 ([2]; All cycles, 42 patients): 52% | Patients with worst ECG Grade 0 ([2]; Cycle 1 only, 42 patients): 19% | Patients with worst ECG Grade 1 ([2]; Cycle 1 only, 42 patients): 57% | Patients with worst ECG Grade 2 ([2]; Cycle 1 only, 42 patients): 24% | Patients with ECG grade 0 at presentation for next cycle ([2]; Pre-treatment cycle 2 day 1 (n = 34), worst grade cycle 1: 0): 6 | Patients with ECG grade 0 at presentation for next cycle [2, 4]: 18 | Patients with ECG grade 1 at presentation for next cycle [2, 4]: 3 | Patients with ECG grade 0 at presentation for next cycle [2, 5]: 4 | Patients with ECG grade 1 at presentation for next cycle [2, 5]: 2 | Patients with ECG grade 2 at presentation for next cycle [2, 5]: 1 | Patients with ECG grade 0 at presentation for next cycle ([2]; Pre-treatment cycle 3 day 1 (n = 28), worst grade cycle 2: 0): 2 | Patients with ECG grade 0 at presentation for next cycle [2, 6]: 16 | Patients with ECG grade 1 at presentation for next cycle [2, 6]: 1 | Patients with ECG grade 0 at presentation for next cycle [2, 7]: 7 | Patients with ECG grade 1 at presentation for next cycle [2, 7]: 2 | Patients with ECG grade 0 at presentation for next cycle ([2]; Pre-treatment cycle 4 day 1 (n = 20), worst grade cycle 3: 1): 14 | Patients with ECG grade 0 at presentation for next cycle ([2]; Pre-treatment cycle 4 day 1 (n = 20), worst grade cycle 3: 2): 6 | Patients with ECG grade 0 at presentation for next dose [2, 8]: 14 | Patients with ECG grade 1 at presentation for next dose [2, 8]: two | Patients with ECG grade 1 at presentation for next dose ([2]; Pre-treatment day 8 (n = 37), worst grade post-day 1 treatment 0, listed as depsipeptide): 2 | Patients with ECG grade 0 at presentation for next dose [2, 9]: nine | Patients with ECG grade 1 at presentation for next dose [2, 9]: 8 | Patients with ECG grade 2 at presentation for next dose [2, 9]: 1 | Patients with ECG grade 0 at presentation for next dose ([2]; Pre-treatment day 8 (n = 37), worst grade post-day 1 treatment 1, listed as depsipeptide): 9 | Patients with ECG grade 0 at presentation for next dose [2, 10]: two | Patients with ECG grade 1 at presentation for next dose [2, 10]: 1 | Patients with ECG grade 0 at presentation for next dose ([2]; Pre-treatment day 8 (n = 37), worst grade post-day 1 treatment 2, listed as depsipeptide): 2 | Patients with ECG grade 0 at presentation for next dose [2, 11]: 6 | Patients with ECG grade 1 at presentation for next dose [2, 11]: 3 | Patients with ECG grade 0 at presentation for next dose [2, 12]: 13 | Patients with ECG grade 1 at presentation for next dose [2, 12]: 10 | Patients with ECG grade 0 at presentation for next dose [2, 13]: 2 | Patients with ECG grade 1 at presentation for next dose [2, 13]: 1 | Patients with ECG grade 2 at presentation for next dose [2, 13]: 1 | ECGs Grade 0 (no T-wave/ST segment abnormality) ([2]; Day after treatment): 20% | ECGs Grade 1 (T-wave abnormality) ([2]; Day after treatment): 69% | ECGs Grade 2 (ST segment depression) ([2]; Day after treatment): 11% | ECGs Grade 1 (T-wave abnormality) [2, 14]: 69% | ECGs Grade 2 (ST segment depression) [2, 14]: 11% | ECGs Grade 0 (no T-wave/ST segment abnormality) ([2]; Immediate post infusion): 49% | ECGs Grade 1 (T-wave abnormality) ([2]; Immediate post infusion): 48% | ECGs Grade 2 (ST segment depression) ([2]; Immediate post infusion): 3% | ECGs Grade 1 (T-wave abnormality) [2, 15]: 48% | ECGs Grade 2 (ST segment depression) [2, 15]: 3% | ECGs Grade 0 (no T-wave/ST segment abnormality) ([2]; Pre-treatment ECGs): 76% | ECGs Grade 1 (T-wave abnormality) ([2]; Pre-treatment ECGs): 22% | ECGs Grade 2 (ST segment depression) ([2]; Pre-treatment ECGs): 2% | ECGs Grade 1 (T-wave abnormality) [2, 16]: 22% | ECGs Grade 2 (ST segment depression) [2, 16]: 2% | Patients with worst ECG Grade 1 [2, 17]: 43% | Patients with worst ECG Grade 2 [2, 17]: 54% | ECGs Grade 0 [2, 18]: 49% | ECGs Grade 1 [2, 18]: 44% | ECGs Grade 2 [2, 18]: 7% | ECGs Grade 0 [2, 19]: 55% | ECGs Grade 1 [2, 19]: 45% | ECGs Grade 0 [2, 20]: 82% | ECGs Grade 1 [2, 20]: 18% | ECGs Grade 0 [2, 21]: 95% | ECGs Grade 1 [2, 21]: 5% | ST segment depression, grade 2 ([2]; first dose of the first cycle, day 3): not observed | Grade 2 ECGs meeting criteria consistent with ischemia (1 mm ST segment depression 80 msec after end of QRS) ([2]; of 69 ECGs scored grade 2, cardiologist review): 45% | Patients returning for the second cycle with no evidence of T-wave or ST-segment abnormalities ([2]; of the 34 patients returning for cycle 2): Twenty-eight | Pre-treatment versus post-treatment LVEF ([3]; 8 patients with six or more cycles and prior doxorubicin): did not demonstrate a difference in pre-treatment and post-treatment LVEF | Latest EF, Median [3, 22]: 63.5% | Latest EF, Range [3, 22]: 50-80% | Starting EF, Median [3, 23]: 65.5% | Starting EF, Range [3, 23]: 50-85% | LVEF evaluations versus baseline ([3]; 16 patients who received six or more cycles, median cumulative dose 390 mg/m^2): did not demonstrate a change from baseline | EF by MUGA, On-study Median (range) ([3]; All patients (19), baseline): 61% (46-85) | EF by Echocardiogram, On-study Median (range) ([3]; All patients (23), baseline): 67% (53-85) | Median actual change in LVEF, on-study to last scan ([3]; MUGA scans, 13 patients, median 20.3 weeks): 1% | EF by MUGA, Last evaluation Median (range) ([3]; Patients treated with >6 cycles (7)): 61% (50-68) | EF by MUGA, On-study Median (range) ([3]; Patients treated with >6 cycles (7), baseline): 64% (50-77) | EF by Echocardiogram, Last evaluation Median (range) ([3]; Patients treated with >6 cycles (9)): 68% (58-80) | EF by Echocardiogram, On-study Median (range) ([3]; Patients treated with >6 cycles (9), baseline): 69% (56-85) | EF by MUGA, Last evaluation Median (range) ([3]; Patients with pre- and post treatment evaluations (13)): 61% (50-91) | EF by MUGA, On-study Median (range) ([3]; Patients with pre- and post treatment evaluations (13), baseline): 62% (46-85) | EF by Echocardiogram, Last evaluation Median (range) ([3]; Patients with pre- and post treatment evaluations (22)): 64% (53-87) | EF by Echocardiogram, On-study Median (range) ([3]; Patients with pre- and post treatment evaluations (22), baseline): 67% (53-85) | Median actual change in LVEF, on-study to last scan ([3]; echocardiograms, 22 patients, median 18.4 weeks): −1% | Latest EF ([3]; individual patients receiving at least 6 cycles of therapy): 50% and 78% and 61% (3×) and 72% and 68% (3×) and 80% and 58% (2×) and 70% and 63% and 64% and 60% | Starting EF ([3]; individual patients receiving at least 6 cycles of therapy, baseline): 52% and 69% and 56% and 67% and 70% (2×) and 85% (2×) and 68% and 58% and 59% and 64% (2×) and 50% and 77% and 54%
